# Experimental data from patent publication US20090111781A1, “Use of Cymipristone Type Compounds in Aids Treatment” (SHANGHAI THREE-ALLIANCE BIOTECHNOLOGIES CO., LTD., priority 2005, published 2009).
# Columns and labels:
# [1] = molecular target: T1, human glucocorticoid receptor (Homo sapiens, UniProt P04150); experiment: Antagonism on dexamethasone in CV-1 cells cotransfected with GR and luciferase reporter; format: cell-based
# T1 construct: expressed in transfected cells; host or cells: CV-1 cells
# T1 sequence (P04150 1-777): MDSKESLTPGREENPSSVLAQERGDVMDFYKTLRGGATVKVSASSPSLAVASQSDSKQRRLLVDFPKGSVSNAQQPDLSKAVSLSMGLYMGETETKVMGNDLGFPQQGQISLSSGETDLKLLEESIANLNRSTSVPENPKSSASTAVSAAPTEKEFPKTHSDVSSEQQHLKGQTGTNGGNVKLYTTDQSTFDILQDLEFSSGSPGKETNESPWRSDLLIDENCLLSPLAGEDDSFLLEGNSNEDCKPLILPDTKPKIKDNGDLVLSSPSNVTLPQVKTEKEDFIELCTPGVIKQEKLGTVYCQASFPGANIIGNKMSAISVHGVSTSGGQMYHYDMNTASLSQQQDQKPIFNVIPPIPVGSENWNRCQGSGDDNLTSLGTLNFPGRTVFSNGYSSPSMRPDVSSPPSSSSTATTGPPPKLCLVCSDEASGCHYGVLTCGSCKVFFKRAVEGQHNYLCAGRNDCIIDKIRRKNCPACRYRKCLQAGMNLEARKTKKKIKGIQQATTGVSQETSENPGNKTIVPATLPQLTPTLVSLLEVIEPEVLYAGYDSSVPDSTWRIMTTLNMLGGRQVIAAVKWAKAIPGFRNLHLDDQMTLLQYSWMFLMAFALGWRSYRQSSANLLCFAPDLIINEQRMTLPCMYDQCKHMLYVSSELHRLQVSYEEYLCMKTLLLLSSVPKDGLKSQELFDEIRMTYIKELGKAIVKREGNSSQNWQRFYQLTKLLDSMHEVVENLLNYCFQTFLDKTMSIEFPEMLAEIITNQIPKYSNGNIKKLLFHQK
# Procedure: Inoculate (6×10^5) of CV-1 cells into cell culture dish of 60 mm diameter using phenol red-free low-sugar DMEM containing 10% FBS as culture medium and incubate overnight under 37° C. and 5% CO2. Suction according to 1:5 ratio pipet 2 μg of plasmid carried GR genes and luciferase reporting genes, cotransfect CV-1 cells with FuGene 6 transfection reagent (from Roche), and incubate for 8 hours under above conditions, Inoculate the transfected cells into 96-pore micro culture plate, 8000 cells/100 μl/pore, and incubate cells to adhibit on the wall of dish. […] Discard the culture liquid, wash the cells twice with PBS, and pipet off all residual PBS. fragment the cells by CCLR Assay Kit (from Progema) for 15 min. Add 20 μl of fragmentation solution into 96 pore cell culture plate with white edge and white bottom, add CCLR substrate (from Progema), 100 μl/pore, and immediately detect the chemical luminescence count value caused by activated luciferase on Wallac 1420 Multilabel Counter.
# thymus gland cells = experiment: Anti-glucocorticoid activity test, [3H]-TdR incorporation in rat thymus gland cells; format: cell-based; details: for Antagonism against dexamethasone (incorporation rate of [3H]-TdR): n = 4
# Procedure: Clean female SD rats, body weight 200-250 g, are fed with certain quantity of food and freely drink water. The temperature is controlled at about 24° C. and an illumination cycle are for 11 hours by day and 13 hours at night. All animals are observed for 1 week before experiment. Rats are anesthetized with ethyl ether. Incisions are made on two sides below costal arch of ribs on dorsal position of rats to extirpate adrenal glands. The rats are fed with physiological saline after operation. On the seventh day, animals are acutely executed. Take out thymus gland to place in to HBSS buffer solution, wash twice, remove connective tissue, cut the tissue with scissors, lightly grind with homogenizer, filter with three layers of gauze, and centrifuge the filtrate for 5 min (500 rpm). Wash the precipitated cells twice with HBSS, re-suspend the cells in RPMI1640 culture medium for cell count and cell survival rate determination, and adjust cell concentration to 1×10^7/ml. Determination of anti-glucocorticoid activity: Add tested compound into culture medium, reaction concentration 6×10^−[…], and place in 37° C. incubator for 3 hours. Add thymus gland cells to make cell concentration to become 10^7/ml and incubate at 37° C. for 3 hours. Add 1 μCi of label substance, mix, and incubate for 1 hour. Add 100 μl of ice cold 5% trichloroacetic acid to end the reaction. Place the test tube on ice and wash twice with 2 ml of ice cold 5% trichloroacetic acid and centrifuge twice, 500 rpm×5 min, Add 0.5 ml of 1N NaOH to dissolve the precipitated cells, pipet out the liquid, dry the residue with cotton stick, place into same scintillation bottle, and determine the radioactivity by liquid scintillation counter.
# Calculate the incorporation rate of [^3H]-TdR:
# In which: T=[^3H]-TdR count without presence of compound, Td=count with presence of compound, and NSB=non-specific adsorption.
# Inhibition rate=100%−incorporation rate
# [2] = Rattus norvegicus, read-out: Residual inhibition rate of dexamethasone
smiles,measurement,setting,value
"CC#C[C@]1(O)CC[C@H]2[C@@H]3CCC4=CC(=O)CCC4=C3[C@@H](c3ccc(N(C)C4CCCCC4)cc3)C[C@@]21C [Cymipristone, 11β-[4-(N-methyl-N-cyclohexylamino)phenyl]-17α-(1-propynyl)-17β-hydroxyl-4,9-estradiene-3-one]",IC50,[1],260 ± 20 pM
same,Antagonistic activity on human glucocorticoid receptor function caused by dexamethasone (in words),[1]; gene cotransfected live cells,significant antagonistic activity
same,Anti-glucocorticoid activity (in words),thymus gland cells,Result shows that cymipristone has anti-glucocorticoid activity.
same,activity at 0.06 µM,thymus gland cells; [2],35.2 ± 2.4%
same,activity at 0.2 µM,thymus gland cells; [2],57.7 ± 3.5%
same,activity at 0.6 µM,thymus gland cells; [2],42.2 ± 1.9%
same,activity at 2 µM,thymus gland cells; [2],64.1 ± 5.6%
same,Antagonism against dexamethasone (incorporation rate of [3H]-TdR),thymus gland cells; cymipristone 2 × 10^−6 mol/L with dexamethasone 6×10^−8 mol/L,63.6 ± 5.1%
same,Antagonism against dexamethasone (incorporation rate of [3H]-TdR),thymus gland cells; cymipristone 2 × 10^−7 mol/L with dexamethasone 6×10^−8 mol/L,67.2 ± 2.9%
same,Antagonism against dexamethasone (incorporation rate of [3H]-TdR),thymus gland cells; cymipristone 6 × 10^−7 mol/L with dexamethasone 6×10^−8 mol/L,76.0 ± 3.8%
same,Antagonism against dexamethasone (incorporation rate of [3H]-TdR),thymus gland cells; cymipristone 6 × 10^−8 mol/L with dexamethasone 6×10^−8 mol/L,80.0 ± 4.3%
